Target: T1, hSCN9A (Homo sapiens, UniProt Q15858)
T1 construct: expressed in transfected cells
Assay: Whole-cell patch-clamp electrophysiology (conventional or PatchXpress), HEK cells expressing hSCN9A, estimated IC-50
Type: cell-based
Settings: estimated IC-50, HEK cells expressing hSCN9A; class symbols or bounds; read-out: SCN9A EIC-50
In short: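 Stably transfected HEK cells recorded by whole-cell voltage clamp (manual or PatchXpress) at 22–24 °C in pH 7.4 HEPES-buffered extracellular solution. Cells held at the empirically determined inactivation V1/2 after an 8 s prepulse, then stepped to 0 mV for 20 ms; % inhibition from current amplitude before vs after compound.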

T1 sequence (Q15858 whole entry): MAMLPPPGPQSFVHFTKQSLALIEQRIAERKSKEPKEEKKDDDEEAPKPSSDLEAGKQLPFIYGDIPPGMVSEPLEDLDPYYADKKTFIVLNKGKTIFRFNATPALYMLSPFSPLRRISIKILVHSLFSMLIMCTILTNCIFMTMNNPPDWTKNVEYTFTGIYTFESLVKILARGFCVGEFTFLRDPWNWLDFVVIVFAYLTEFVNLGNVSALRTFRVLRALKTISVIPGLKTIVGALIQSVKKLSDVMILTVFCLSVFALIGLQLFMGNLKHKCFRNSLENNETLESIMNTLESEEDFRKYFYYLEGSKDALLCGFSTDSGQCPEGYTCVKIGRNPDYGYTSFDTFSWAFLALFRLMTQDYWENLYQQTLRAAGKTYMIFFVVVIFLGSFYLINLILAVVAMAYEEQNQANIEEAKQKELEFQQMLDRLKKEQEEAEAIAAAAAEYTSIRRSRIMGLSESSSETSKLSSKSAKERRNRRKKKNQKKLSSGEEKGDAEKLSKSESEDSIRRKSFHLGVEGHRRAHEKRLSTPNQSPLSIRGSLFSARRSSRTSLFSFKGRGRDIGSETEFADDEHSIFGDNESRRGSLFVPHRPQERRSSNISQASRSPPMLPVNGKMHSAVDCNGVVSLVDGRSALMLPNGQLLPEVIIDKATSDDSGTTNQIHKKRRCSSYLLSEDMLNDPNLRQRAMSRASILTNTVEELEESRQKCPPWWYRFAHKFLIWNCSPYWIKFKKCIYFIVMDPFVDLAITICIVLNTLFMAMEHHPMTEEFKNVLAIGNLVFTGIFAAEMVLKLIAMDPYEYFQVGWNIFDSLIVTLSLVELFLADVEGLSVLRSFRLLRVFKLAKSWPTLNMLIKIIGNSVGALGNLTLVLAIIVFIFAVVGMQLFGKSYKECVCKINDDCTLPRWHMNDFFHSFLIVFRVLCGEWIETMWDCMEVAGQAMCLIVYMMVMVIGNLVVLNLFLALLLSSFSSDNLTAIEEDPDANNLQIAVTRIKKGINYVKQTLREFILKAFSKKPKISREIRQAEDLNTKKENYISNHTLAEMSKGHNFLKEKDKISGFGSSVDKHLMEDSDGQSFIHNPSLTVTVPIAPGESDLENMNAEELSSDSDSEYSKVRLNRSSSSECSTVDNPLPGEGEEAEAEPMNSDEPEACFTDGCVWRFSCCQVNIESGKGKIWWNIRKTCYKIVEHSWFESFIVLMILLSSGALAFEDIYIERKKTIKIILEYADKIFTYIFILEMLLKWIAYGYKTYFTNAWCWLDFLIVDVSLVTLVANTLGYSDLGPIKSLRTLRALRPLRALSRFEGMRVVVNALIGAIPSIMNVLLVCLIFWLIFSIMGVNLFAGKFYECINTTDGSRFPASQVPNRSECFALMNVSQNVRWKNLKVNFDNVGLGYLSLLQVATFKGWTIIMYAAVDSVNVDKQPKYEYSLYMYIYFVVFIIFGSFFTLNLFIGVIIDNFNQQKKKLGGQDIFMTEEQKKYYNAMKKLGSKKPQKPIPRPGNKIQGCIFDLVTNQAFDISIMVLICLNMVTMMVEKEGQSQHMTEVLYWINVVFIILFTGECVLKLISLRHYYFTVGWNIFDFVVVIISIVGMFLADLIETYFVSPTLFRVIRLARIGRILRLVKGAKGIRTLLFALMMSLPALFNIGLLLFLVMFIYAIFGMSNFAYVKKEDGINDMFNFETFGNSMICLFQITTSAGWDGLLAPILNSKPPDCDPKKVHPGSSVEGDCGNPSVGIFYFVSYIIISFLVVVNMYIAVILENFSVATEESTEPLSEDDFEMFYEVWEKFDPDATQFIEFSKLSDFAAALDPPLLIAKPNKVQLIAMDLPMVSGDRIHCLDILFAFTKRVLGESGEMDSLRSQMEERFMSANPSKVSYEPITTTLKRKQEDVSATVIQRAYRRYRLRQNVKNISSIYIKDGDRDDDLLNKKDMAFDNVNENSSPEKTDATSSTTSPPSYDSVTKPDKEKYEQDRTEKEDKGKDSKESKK

## COc1ccccc1Cc1cc(Nc2ccc(S(=O)(=O)Nc3nccs3)cc2)n(C)n1 [Compound 127, 4-(3-(2-methoxybenzyl)-1-methyl-1H-pyrazol-5-ylamino)-N-(thiazol-2-yl)benzenesulfonamide]
  IC50: 2000 to 10000 nM

## Cn1nc(Cc2ccc(Cl)cc2)cc1Nc1ccc(S(=O)(=O)Nc2nccs2)c(F)c1 [Compound 141, 4-(3-(4-chlorobenzyl)-1-methyl-1H-pyrazol-5-ylamino)-2-fluoro-N-(thiazol-2-yl)benzenesulfonamide]
  IC50: < 2000 nM

## O=S(=O)(Nc1nccs1)c1ccc(Nc2ccn(Cc3ccc(Cl)cc3F)n2)cc1F [Compound 197, 4-(1-(4-chloro-2-fluorobenzyl)-1H-pyrazol-3-ylamino)-2-fluoro-N-(thiazol-2-yl)benzenesulfonamide]
  IC50: < 2000 nM

## O=S(=O)(Nc1nccs1)c1ccc(Nc2nnc(Cc3ccc(Cl)cc3)s2)cc1 [Compound 120, 4-(5-(4-chlorobenzyl)-1,3,4-thiadiazol-2-ylamino)-N-(thiazol-2-yl)benzenesulfonamide]
  IC50: 2000 to 10000 nM

## Cc1cc(Nc2ccc(S(=O)(=O)Nc3nccs3)c(F)c2)n(-c2ccc(F)cc2)n1 [Compound 178, 2-fluoro-4-(1-(4-fluorophenyl)-3-methyl-1H-pyrazol-5-ylamino)-N-(thiazol-2-yl)benzenesulfonamide]
  IC50: < 2000 nM

## CC(C)c1nnc(NS(=O)(=O)c2ccc(Nc3ccn(Cc4ccc(Cl)cc4)n3)cc2F)s1 [Compound 256, 4-(1-(4-chlorobenzyl)-1H-pyrazol-3-ylamino)-2-fluoro-N-(5-isopropyl-1,3,4-thiadiazol-2-yl)benzenesulfonamide]
  IC50: > 1000 nM

## N#Cc1cc(S(=O)(=O)Nc2ncns2)ccc1Nc1nnc(-c2ccccc2)c(O)n1 [Compound 273, 3-cyano-4-(5-hydroxy-6-phenyl-1,2,4-triazin-3-ylamino)-N-(1,2,4-thiadiazol-5-yl)benzenesulfonamide]
  IC50: > 1000 nM

## O=S(=O)(Nc1nccs1)c1ccc(Nc2ncn(Cc3ccc(Cl)cc3)n2)c(F)c1 [Compound 199, 4-(1-(4-chlorobenzyl)-1H-1,2,4-triazol-3-ylamino)-3-fluoro-N-(thiazol-2-yl)benzenesulfonamide]
  IC50: < 2000 nM

## Cc1cc(Nc2ccc(S(=O)(=O)Nc3nccs3)c(F)c2)n(-c2ccc(C(F)(F)F)cc2)n1 [Compound 170, 2-fluoro-4-(3-methyl-1-(4-(trifluoromethyl)phenyl)-1H-pyrazol-5-ylamino)-N-(thiazol-2-yl)benzenesulfonamide]
  IC50: < 2000 nM

## Cc1cc(Nc2ccc(S(=O)(=O)Nc3nccs3)c(F)c2)n(C(C)(C)C)n1 [Compound 192, 4-(1-tert-butyl-3-methyl-1H-pyrazol-5-ylamino)-2-fluoro-N-(thiazol-2-yl)benzenesulfonamide]
  IC50: 2000 to 10000 nM

## O=S(=O)(Nc1nccs1)c1ccc(Nc2cc(C3CC3)nn2-c2ccccc2)cc1 [Compound 144, 4-(3-cyclopropyl-1-phenyl-1H-pyrazol-5-ylamino)-N-(thiazol-2-yl)benzenesulfonamide]
  IC50: < 2000 nM

## Cc1cc(Nc2ccc(S(=O)(=O)Nc3nccs3)c(F)c2)n(-c2c(Cl)cccc2Cl)n1 [Compound 189, 4-(1-(2,6-dichlorophenyl)-3-methyl-1H-pyrazol-5-ylamino)-2-fluoro-N-(thiazol-2-yl)benzenesulfonamide]
  IC50: < 2000 nM

## Cc1ccc(Cc2cc(Nc3ccc(S(=O)(=O)Nc4nccs4)c(F)c3)n(C(C)(C)C)n2)cc1 [Compound 157, 4-(1-tert-butyl-3-(4-methylbenzyl)-1H-pyrazol-5-ylamino)-2-fluoro-N-(thiazol-2-yl)benzenesulfonamide]
  IC50: < 2000 nM

## Cc1cc(Nc2ccc(S(=O)(=O)Nc3nccs3)c(F)c2)n(C2CCCC2)n1 [Compound 169, 4-(1-cyclopentyl-3-methyl-1H-pyrazol-5-ylamino)-2-fluoro-N-(thiazol-2-yl)benzenesulfonamide]
  IC50: < 2000 nM

## Cc1cc(Nc2ccc(S(=O)(=O)Nc3nccs3)c(OC(F)(F)F)c2)n(-c2ccccc2)n1 [Compound 270, 4-(3-methyl-1-phenyl-1H-pyrazol-5-ylamino)-N-(thiazol-2-yl)-2-(trifluoromethoxy)benzenesulfonamide]
  IC50: > 1000 nM

Source: patent US8124610B2, “Sodium channel inhibitors” (Icagen Inc., priority 2007, dated 2012)
